Test results taken from US8440688B2, “Compounds, formulations and methods for reducing skin wrinkles, creasing and sagging” (Galderma Laboratories Inc., priority 2007, dated 2013).

Tested on: severe wrinkling on their face
Experiment: Topical application of COL-118 to facial wrinkles (Example 18)
Assay type: in vivo, human
Conditions: middle-aged person, topical 0.2% COL-118
Procedure: A middle-aged person has severe wrinkling on their face. They apply 0.2% COL-118 (an α2 adrenergic receptor agonist supplied by CollaGenex Pharmaceuticals, Inc., Newtown, Pa.). Wrinkling is noticeably diminished within 5 minutes by casual observation. After about 10 minutes, nearly all the wrinkles are gone. The effect lasts at least 8 hr.

SMILES: Brc1c(NC2=NCCN2)ccc2nccnc12 [COL-118]
- Duration of the wrinkle-reducing effect: at least 8 hr
- Time after which nearly all the wrinkles are gone: about 10 minutes
- Time until wrinkling is noticeably diminished (casual observation): ≤ 5 min
